Common to all, as to format: cell-based
In assay [1] the test system is M. hominis (Mh). Nature of the assay: MIC by micro-broth dilution, M. hominis. Conditions: 49 isolates, SP4 medium. Here is the method:
(§1) Organisms used in the analyses included Mycoplasma pneumoniae (MPN), M. hominis (Mh), M. fermentans (Mf), M. genitalium (Mg), M. penetrans (Mp) and Ureaplasma urealyticum (Uu). Minimum Inhibitory Concentrations (MICs) were determined using a micro-broth dilution method. Assays for Ureaplasma urealyticum were performed in 10B media and all other mycoplasma assays were carried out in SP4 medium.
(In broth dilution the organism is exposed to a series of concentrations in liquid medium.)

In assay [2] the test system is Mycoplasma pneumoniae (MPN). Nature of the assay: MIC by micro-broth dilution, Mycoplasma pneumoniae. Here is the method: as §1
The test system of assay [3] is M. fermentans (Mf). As to the kind of experiment: MIC by micro-broth dilution, M. fermentans. Conditions: 19 isolates, SP4 medium. Here is the method:
as §1

The test system of assay [4] is M. penetrans (Mp). As to the kind of experiment: MIC by micro-broth dilution, M. penetrans. The settings on record: 1 isolate, SP4 medium; for MIC: read-out: MICs for Mp. Here is the method: as §1
The subject of assay [5] is M. genitalium (Mg). Nature of the assay: MIC by micro-broth dilution, M. genitalium. Conditions: Mycoplasmoides genitalium, 2 isolates, one line per isolate, SP4 medium, read-out: MICs for Mg. Here is the method: as §1
Assay [6] concerns Ureaplasma urealyticum (Uu). As to the kind of experiment: MIC by micro-broth dilution, Ureaplasma urealyticum. Here is the method: as §1
The mark [7] stands for this setting: Metamycoplasma hominis, read-out: MIC 90.
The mark [8] stands for this setting: MPN, 103 isolates, SP4 medium, read-out: MIC 90.
[9] abbreviates: Mycoplasmopsis fermentans, read-out: MIC 90.
[10] abbreviates: Uu, 99 isolates, 10B media, read-out: MIC 90.

Converted amounts (≈) assume the structure as drawn. Where two headings read alike, the source gives them in different places.

For the molecule `CO/N=C1\CN(c2nc3c(cc2F)c(=O)c(C(=O)O)cn3C2CC2)CC1CN` (racemic) [Gem, (R,S)-7-(3-aminomethyl-4-methoxyiminopyrrolidin-1-yl)-1-cyclopropyl-6-fluoro-4-oxo-1,4-dihydro-1,8-naphthyridine-3-carboxylic acid], the MIC90 in assay [1] (setting [7]) was at most 0.008 µg/mL; in assay [2] (setting [8]), 0.125 µg/mL (≈ 0.321 µM); in assay [3] (setting [9]), at most 0.008 µg/mL; in assay [6] (setting [10]) it was 0.25 µg/mL (≈ 0.642 µM). In addition, the MIC in assay [4] is at most 0.008 µg/mL; in assay [5], 0.063 µg/mL (≈ 0.162 µM).

As to `CC[C@H]1OC(=O)[C@H](C)[C@@H](O[C@H]2C[C@@](C)(OC)[C@@H](O)[C@H](C)O2)[C@H](C)[C@@H](O[C@@H]2O[C@H](C)C[C@H](N(C)C)[C@H]2O)[C@](C)(O)C[C@@H](C)CN(C)[C@H](C)[C@@H](O)[C@]1(C)O` [Azith, azithromycin], the values for the MIC90 in assay [2] (setting [8]), in assay [3] (setting [9]) and in assay [6] (setting [10]) were at most 0.008 µg/mL, 2 µg/mL (≈ 2.67 µM) and 4 µg/mL (≈ 5.34 µM), respectively. For the same molecule, the MIC in assay [4] and in assay [5] was at most 0.008 µg/mL throughout.

With `CC[C@H]1OC(=O)[C@H](C)[C@@H](O[C@H]2C[C@@](C)(OC)[C@@H](O)[C@H](C)O2)[C@H](C)[C@@H](O[C@@H]2O[C@H](C)C[C@H](N(C)C)[C@H]2O)[C@](C)(OC)C[C@@H](C)C(=O)[C@H](C)[C@@H](O)[C@]1(C)O` [Clar, clarithromycin], the MIC90 was at most 0.008 µg/mL in assay [2] (setting [8]), 64 µg/mL (≈ 85.6 µM) in assay [3] (setting [9]) and 0.063 µg/mL (≈ 0.0842 µM) in assay [6] (setting [10]). The MIC in assay [4] and in assay [5] was at most 0.008 µg/mL in each case.

Regarding `CCC[C@@H]1C[C@@H](C(=O)N[C@@H]([C@H]2O[C@H](SC)[C@H](O)[C@@H](O)[C@H]2O)[C@H](C)Cl)N(C)C1` [Clin, clindamycin], the “MIC90” value was “≦0.008 ug/ml” in assay [1] and 0.031 µg/mL (≈ 0.0729 µM) in assay [3]. Also, in assay [4], the “MICs for Mp” value is reported as “≦0.008 ug/ml”.

On to `Cc1c(F)c(N2CCNC(C)C2)cc2c1c(=O)c(C(=O)O)cn2C1CC1` (stereo not shown) [Grep, grepafloxacin], for which the MIC90 in assay [1] (setting [7]) amounted to 0.031 µg/mL (≈ 0.0863 µM); in assay [2] (setting [8]) it was 0.125 µg/mL (≈ 0.348 µM); in assay [3] (setting [9]), 0.016 µg/mL (≈ 0.0445 µM); in assay [6] (setting [10]), 1 µg/mL (≈ 2.78 µM). In addition, the MIC was determined as 0.016 µg/mL (≈ 0.0445 µM) in assay [4] and 0.125 µg/mL (≈ 0.348 µM) in assay [5].

With `C[C@H]1COc2c(N3CCN(C)CC3)c(F)cc3c(=O)c(C(=O)O)cn1c23` [Lev, levofloxacin], the MIC90 in assay [1] (setting [7]) was determined as 0.25 µg/mL (≈ 0.692 µM); in assay [2] (setting [8]), 0.5 µg/mL (≈ 1.38 µM); in assay [3] (setting [9]), 0.031 µg/mL (≈ 0.0858 µM); in assay [6] (setting [10]) it was 1 µg/mL (≈ 2.77 µM). The MIC came out at 0.031 µg/mL (≈ 0.0858 µM) in assay [4] and 0.5 µg/mL (≈ 1.38 µM) in assay [5].

`CN(C)[C@@H]1C(O)=C(C(N)=O)C(=O)[C@@]2(O)C(O)=C3C(=O)c4c(O)cccc4[C@@](C)(O)[C@H]3C[C@@H]12` [Tet, tetracycline]: the MIC90 in assay [1] (setting [7]) was determined as 32 µg/mL (≈ 72 µM); in assay [2], 0.25 µg/mL (≈ 0.563 µM); in assay [3] (setting [9]) it was 0.063 µg/mL (≈ 0.142 µM); in assay [6], 1 µg/mL (≈ 2.25 µM). The MIC in assay [4] stood at 0.125 µg/mL (≈ 0.281 µM); in assay [5] it was 0.063 µg/mL (≈ 0.142 µM).

Consider `N[C@@H]1[C@H]2CN(c3nc4c(cc3F)c(=O)c(C(=O)O)cn4-c3ccc(F)cc3F)C[C@@H]12` [Trov, trovafloxacin], for which the results for the “MIC90” value in assay [1] and in assay [3] were 0.031 µg/mL (≈ 0.0745 µM) and 0.016 µg/mL (≈ 0.0384 µM), respectively. For the same molecule, the “MICs for Mp” value in assay [4] was “≦0.008 ug/ml”.

The values above are taken from patent publication US20040229881A1, “Methods of use of antimicrobial compounds against pathogenic mycoplasma bacteria” (SmithKline Beecham Corporation, priority 1999, published 2004).
